ChEMBL document CHEMBL1201862, “PubChem BioAssay data set” (2004)
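96-well plates; 48 h exposure; 5 concentrations. Endpoints by linear interpolation between flanking doses. Not reached: highest tested concentration assigned. Abbreviation: GI50, concentration required for 50% inhibition of growth.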 Active and inactive are the calls of the source. Cut-off read from the data, not from the text of the source: active = GI50 up to about 1.1 µM and inactive = higher.

Assays:
Assay in all cases: NCI-60 cell line screen, 48 h
[1] = system: CAKI-1
[2] = system: SK-MEL-2
[3] = system: K562
[4] = system: OVCAR-5
[5] = system: SF-295
[6] = system: SK-MEL-5
[7] = system: NCI-H460
[8] = system: HL-60
[9] = system: SNB-19
[10] = system: IGROV-1
[11] = system: SNB-78
[12] = system: HOP-18
[13] = system: SK-MEL-28
[14] = system: SF-268
[15] = system: M19-MEL
[16] = system: LOX IMVI
[17] = system: SK-OV-3
[18] = system: SN12C
[19] = system: HOP-92
[20] = system: UACC-62
[21] = system: OVCAR-4
[22] = system: A549
[23] = system: 786-0
[24] = system: NCI-H522
[25] = system: U-251
[26] = system: SR
[27] = system: KM12
[28] = system: Malme-3M
[29] = system: OVCAR-8
[30] = system: SF-539
[31] = system: MOLT-4
[32] = system: RXF 393
[33] = system: NCI-H226
[34] = system: COLO 205
[35] = system: LXFL 529
[36] = system: HOP-62
[37] = system: SW-620
[38] = system: DMS-273
[39] = system: DLD-1
[40] = system: RXF 631
[41] = system: DMS-114
[42] = system: EKVX
[43] = system: CCRF-CEM
[44] = system: HT-29
[45] = system: NCI-H23
[46] = system: TK-10
[47] = system: ACHN
[48] = system: UACC-257
[49] = system: UO-31
[50] = system: A498
[51] = system: HCT-15
[52] = system: RPMI-8226
[53] = system: HCT-116
[54] = system: M14
[55] = system: SNB-75
[56] = system: KM-20L2
[57] = system: OVCAR-3
[58] = system: XF498
[59] = system: HCC 2998

Structure (SMILES): N#Cc1ccc(Cc2ccccn2)cc1Cl
- GI50 [1]: > 100 µM (inactive)
- GI50 [2]: > 100 µM (inactive)
- GI50 [3]: > 100 µM (inactive)
- GI50 [4]: > 100 µM (inactive)
- GI50 [5]: > 100 µM (inactive)
- GI50 [6]: > 100 µM (inactive)
- GI50 [7]: > 100 µM (inactive)
- GI50 [8]: > 100 µM (inactive)
- GI50 [9]: > 100 µM (inactive)
- GI50 [10]: > 100 µM (inactive)
- GI50 [11]: > 100 µM (inactive)
- GI50 [12]: > 100 µM (inactive)
- GI50 [13]: > 100 µM (inactive)
- GI50 [14]: > 100 µM (inactive)
- GI50 [15]: > 100 µM (inactive)
- GI50 [16]: > 100 µM (inactive)
- GI50 [17]: > 100 µM (inactive)
- GI50 [18]: > 100 µM (inactive)
- GI50 [19]: > 100 µM (inactive)
- GI50 [20]: > 100 µM (inactive)
- GI50 [21]: > 100 µM (inactive)
- GI50 [22]: > 100 µM (inactive)
- GI50 [23]: > 100 µM (inactive)
- GI50 [24]: > 100 µM (inactive)
- GI50 [25]: > 100 µM (inactive)
- GI50 [26]: > 100 µM (inactive)
- GI50 [27]: > 100 µM (inactive)
- GI50 [28]: > 100 µM (inactive)
- GI50 [29]: > 100 µM (inactive)
- GI50 [30]: > 100 µM (inactive)
- GI50 [31]: > 100 µM (inactive)
- GI50 [32]: > 100 µM (inactive)
- GI50 [33]: > 100 µM (inactive)
- GI50 [34]: > 100 µM (inactive)
- GI50 [35]: > 100 µM (inactive)
- GI50 [36]: > 100 µM (inactive)
- GI50 [37]: > 100 µM (inactive)
- GI50 [38]: > 100 µM (inactive)
- GI50 [39]: > 100 µM (inactive)
- GI50 [40]: > 100 µM (inactive)
- GI50 [41]: > 100 µM (inactive)
- GI50 [42]: > 100 µM (inactive)
- GI50 [43]: > 100 µM (inactive)
- GI50 [44]: > 100 µM (inactive)
- GI50 [45]: > 100 µM (inactive)
- GI50 [46]: > 100 µM (inactive)
- GI50 [47]: > 100 µM (inactive)
- GI50 [48]: > 100 µM (inactive)
- GI50 [49]: > 100 µM (inactive)

Structure (SMILES): COc1cccc2c1C1=CC(=O)CCC1C(C)(C)O2 (stereo not drawn)
- GI50 [50]: > 100 µM (inactive)
- GI50 [1]: > 100 µM (inactive)
- GI50 [2]: > 100 µM (inactive)
- GI50 [3]: > 100 µM (inactive)
- GI50 [4]: > 100 µM (inactive)
- GI50 [5]: > 100 µM (inactive)
- GI50 [6]: > 100 µM (inactive)
- GI50 [51]: > 100 µM
- GI50 [7]: 35.9 µM (inactive)
- GI50 [8]: 60 µM (inactive)
- GI50 [9]: > 100 µM (inactive)
- GI50 [10]: > 100 µM (inactive)
- GI50 [11]: > 100 µM (inactive)
- GI50 [12]: > 100 µM (inactive)
- GI50 [13]: > 100 µM (inactive)
- GI50 [14]: 44.1 µM (inactive)
- GI50 [15]: > 100 µM (inactive)
- GI50 [16]: 35.7 µM (inactive)
- GI50 [17]: > 100 µM (inactive)
- GI50 [18]: > 100 µM (inactive)
- GI50 [19]: > 100 µM (inactive)
- GI50 [20]: > 100 µM (inactive)
- GI50 [21]: > 100 µM (inactive)
- GI50 [52]: 20.6 µM (inactive)
- GI50 [22]: > 100 µM (inactive)
- GI50 [23]: > 100 µM (inactive)
- GI50 [24]: > 100 µM (inactive)
- GI50 [25]: 45.3 µM (inactive)
- GI50 [27]: 45.6 µM (inactive)
- GI50 [28]: > 100 µM (inactive)
- GI50 [29]: > 100 µM (inactive)
- GI50 [30]: > 100 µM (inactive)
- GI50 [31]: > 100 µM (inactive)
- GI50 [53]: 47.6 µM (inactive)
- GI50 [32]: 6.03 µM (inactive)
- GI50 [33]: > 100 µM (inactive)
- GI50 [34]: 67.6 µM (inactive)
- GI50 [35]: > 100 µM (inactive)
- GI50 [36]: > 100 µM (inactive)
- GI50 [37]: 13.4 µM (inactive)
- GI50 [38]: > 100 µM (inactive)
- GI50 [39]: 57.5 µM (inactive)
- GI50 [40]: > 100 µM (inactive)
- GI50 [41]: 27.8 µM (inactive)
- GI50 [42]: > 100 µM (inactive)
- GI50 [43]: 56.4 µM (inactive)
- GI50 [44]: > 100 µM (inactive)
- GI50 [45]: > 100 µM (inactive)
- GI50 [54]: > 100 µM (inactive)
- GI50 [55]: > 100 µM (inactive)
- GI50 [46]: > 100 µM (inactive)
- GI50 [47]: > 100 µM (inactive)
- GI50 [48]: > 100 µM (inactive)
- GI50 [56]: > 100 µM (inactive)
- GI50 [57]: > 100 µM (inactive)
- GI50 [49]: > 100 µM (inactive)

Structure (SMILES): C[N+](C)(C)CCc1ccccc1
- GI50 [50]: > 100 µM (inactive)
- GI50 [1]: > 100 µM (inactive)
- GI50 [2]: > 100 µM (inactive)
- GI50 [3]: > 100 µM (inactive)
- GI50 [4]: > 100 µM (inactive)
- GI50 [5]: > 100 µM (inactive)
- GI50 [6]: > 100 µM (inactive)
- GI50 [51]: > 100 µM
- GI50 [7]: > 100 µM (inactive)
- GI50 [8]: > 100 µM (inactive)
- GI50 [9]: > 100 µM (inactive)
- GI50 [10]: > 100 µM (inactive)
- GI50 [11]: > 100 µM (inactive)
- GI50 [13]: > 100 µM (inactive)
- GI50 [14]: > 100 µM (inactive)
- GI50 [15]: > 100 µM (inactive)
- GI50 [16]: > 100 µM (inactive)
- GI50 [17]: > 100 µM (inactive)
- GI50 [18]: > 100 µM (inactive)
- GI50 [19]: > 100 µM (inactive)
- GI50 [20]: > 100 µM (inactive)
- GI50 [21]: > 100 µM (inactive)
- GI50 [52]: > 100 µM (inactive)
- GI50 [22]: > 100 µM (inactive)
- GI50 [23]: > 100 µM (inactive)
- GI50 [24]: > 100 µM (inactive)
- GI50 [25]: > 100 µM (inactive)
- GI50 [26]: > 100 µM (inactive)
- GI50 [27]: > 100 µM (inactive)
- GI50 [28]: > 100 µM (inactive)
- GI50 [29]: > 100 µM (inactive)
- GI50 [30]: > 100 µM (inactive)
- GI50 [31]: > 100 µM (inactive)
- GI50 [53]: > 100 µM (inactive)
- GI50 [32]: > 100 µM (inactive)
- GI50 [33]: > 100 µM (inactive)
- GI50 [34]: > 100 µM (inactive)
- GI50 [35]: > 100 µM (inactive)
- GI50 [36]: > 100 µM (inactive)
- GI50 [37]: > 100 µM (inactive)
- GI50 [38]: > 100 µM (inactive)
- GI50 [39]: > 100 µM (inactive)
- GI50 [40]: > 100 µM (inactive)
- GI50 [58]: > 100 µM (inactive)
- GI50 [41]: > 100 µM (inactive)
- GI50 [42]: > 100 µM (inactive)
- GI50 [43]: > 100 µM (inactive)
- GI50 [44]: > 100 µM (inactive)
- GI50 [45]: > 100 µM (inactive)
- GI50 [54]: > 100 µM (inactive)
- GI50 [55]: > 100 µM (inactive)
- GI50 [46]: > 100 µM (inactive)
- GI50 [47]: > 100 µM (inactive)
- GI50 [48]: > 100 µM (inactive)
- GI50 [56]: > 100 µM (inactive)
- GI50 [57]: > 100 µM (inactive)
- GI50 [59]: > 100 µM (inactive)
- GI50 [49]: > 100 µM (inactive)
